In US11572590B2, “Methods for evaluating tumor cell spheroids using 3D microfluidic cell culture device” (Dana-Farber Cancer Institute, Inc., priority 2017, dated 2023):
Read-outs that look alike come from different tables or passages of the source.

Columns and labels:
[1] = molecular target: T1, off-target kinases (Homo sapiens, UniProt P25098); experiment: SelectScreen Kinase Profiling, single point inhibition and IC50 for off-target kinases; assay type: biochemical; details: ADRBK1 (GRK2), ZLYTE, ATP Km app
T1 sequence (P25098 1-689): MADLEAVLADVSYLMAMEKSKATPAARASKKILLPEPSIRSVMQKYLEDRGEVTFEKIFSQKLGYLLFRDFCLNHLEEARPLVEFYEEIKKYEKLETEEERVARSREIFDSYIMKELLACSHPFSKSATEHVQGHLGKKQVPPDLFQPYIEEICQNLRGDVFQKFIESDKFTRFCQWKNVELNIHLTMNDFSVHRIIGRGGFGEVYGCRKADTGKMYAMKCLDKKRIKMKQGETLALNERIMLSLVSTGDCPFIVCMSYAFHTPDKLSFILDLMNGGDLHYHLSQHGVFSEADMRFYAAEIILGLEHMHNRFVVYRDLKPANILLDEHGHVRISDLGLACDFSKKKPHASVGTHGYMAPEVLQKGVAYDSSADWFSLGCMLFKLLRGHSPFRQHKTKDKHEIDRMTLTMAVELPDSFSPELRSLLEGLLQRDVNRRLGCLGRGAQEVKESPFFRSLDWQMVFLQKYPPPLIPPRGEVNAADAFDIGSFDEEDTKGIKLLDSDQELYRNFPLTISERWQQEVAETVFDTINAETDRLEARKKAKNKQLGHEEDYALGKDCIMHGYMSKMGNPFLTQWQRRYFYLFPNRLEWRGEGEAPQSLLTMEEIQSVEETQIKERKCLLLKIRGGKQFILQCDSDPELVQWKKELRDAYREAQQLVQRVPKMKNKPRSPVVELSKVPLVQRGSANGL

[2] = molecular target: T2, off-target kinases (Homo sapiens, UniProt Q9UPZ9); experiment: as above; assay type: biochemical; details: ICK, LanthaScreen Binding
T2 sequence (Q9UPZ9 1-632): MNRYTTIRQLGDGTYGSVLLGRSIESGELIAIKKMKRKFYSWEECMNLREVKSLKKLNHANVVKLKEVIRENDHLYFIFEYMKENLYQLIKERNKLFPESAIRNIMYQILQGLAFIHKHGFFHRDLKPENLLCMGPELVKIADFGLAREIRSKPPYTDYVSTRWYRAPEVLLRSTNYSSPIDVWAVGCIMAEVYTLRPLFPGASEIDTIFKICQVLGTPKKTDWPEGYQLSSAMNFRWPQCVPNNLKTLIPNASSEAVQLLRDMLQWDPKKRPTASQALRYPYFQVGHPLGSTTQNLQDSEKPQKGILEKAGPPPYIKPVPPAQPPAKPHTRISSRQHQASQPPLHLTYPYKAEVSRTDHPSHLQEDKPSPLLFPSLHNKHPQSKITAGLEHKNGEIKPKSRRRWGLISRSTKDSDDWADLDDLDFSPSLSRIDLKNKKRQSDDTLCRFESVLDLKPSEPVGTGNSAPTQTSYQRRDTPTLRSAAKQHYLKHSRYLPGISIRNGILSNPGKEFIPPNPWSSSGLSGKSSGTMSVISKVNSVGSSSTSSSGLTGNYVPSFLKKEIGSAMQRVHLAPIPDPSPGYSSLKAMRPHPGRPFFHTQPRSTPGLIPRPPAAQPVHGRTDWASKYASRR

Compound: N#Cc1cc(-c2ncnc(Nc3ccc(N4CCN(C5COC5)CC4)cc3)n2)ccc1OC1CCOCC1 [Compound 1, 5-(4-((4-(4-(oxetan-3-yl)piperazin-1-yl)phenyl)amino)-1,3,5-triazin-2-yl)-2-((tetrahydro-2H-pyran-4-yl)oxy)benzonitrile]
- inhibition ([1]; read-out: % Inhibition 1): 3%
- inhibition ([1]; read-out: % Inhibition 2): 7%
- inhibition ([1]; read-out: % Inhibition Avg): 5%
- inhibition ([2]; read-out: % Inhibition 1): 22%
- inhibition ([2]; read-out: % Inhibition 2): 22%
- inhibition ([2]; read-out: % Inhibition Avg): 22%
